Paper PMC10611374, “Characterization of the Hemolytic Activity of Mastoparan Family Peptides from Wasp Venoms” (Toxins, 2023)
≈ marks a conversion by molar mass, not a printed value. Where “and” joins values, the source holds several entries; their conditions need not be identical. Equal entries are not always repeated. Where two headings read alike, the source gives them in different places. Ends that are not written are not given here.

Assays:
[1] = tested on: rat red blood cells (RRBCs); test: Hemolytic assay on rat red blood cells; format: cell-based, SD rats; details: for RRBC Hemolysis (hemolysis rate at 320 μg/mL) / EC50: rat red blood cells 5% (v/v) in PBS, 37 °C 1 h, OD 540 nm; for RRBC Hemolysis (hemolysis rate at 320 μg/mL): peptide 320 μg/mL (highest dose), PBS = 0%, mean of three independent experiments; for EC50: four-parameter logistic fit of mean of three independent experiments, '-' = hemolytic activity too low to calculate the EC50
Description: (§1) Fresh human red blood cells were obtained from healthy donors and collected in a sterile blood collecting vessel covered with sodium citrate (1:9) as the anticoagulating agent. Rat red blood cells were collected from the abdominal aorta in sterile blood-collecting vessels coated with sodium citrate (1:4) after the SD rats were anaesthetized with isoflurane. Then, the cells were washed three times with phosphate-buffered saline via centrifugation (1000× g, 4 °C, 5 min) and prepared in a sterile 96-well polypropylene plate to achieve a final concentration of 5% (v/v). Twofold dilutions of the peptides were prepared in PBS to 100 μL and mixed with an equal volume of HRBCs/RRBCs suspension to final peptide concentrations ranging from 10 to 320 μg/mL. After coincubation at 37 °C for 1 h, the plate was centrifuged (2000× g, 4 °C, 20 min), and 100 μL of supernatant was taken for optical density measurements at 540 nm using a microtiter plate reader (SpectraMax 190). The HRBCs/RRBCs were assayed with PBS (blank) or 1% Triton X-100 (positive control) to represent 0% and 100% hemolysis, respectively. The percent hemolysis was calculated according to the following equation: Hemolysis Rate (%) = 100% × (Amastoparans − Ablank)/(ATriton X-100 − Ablank). Three independent experiments were performed, and the mean hemolysis rate at each dose was used to calculate the EC50 in Sigmaplot software.
(§2) Statistical analysis was performed with GraphPad Prism software (version 5.0, San Diego, CA, USA). A two-tailed Student’s t-test was used to calculate the statistical probability in this study. Differences in the data were considered to be statistically significant when the p value was equal to or less than 0.05. The curve of hemolysis induced by wasp mastoparans was generated in SigmaPlot 12.5 software, and the EC50 was calculated according to the equation (Four Parameter Logistic Curve): y = min + (max − min)/(1 + (x/EC50)^−Hillslope). The heat map of hemolytic activity of mastoparan peptide was analysed in R software which is based on the value of log2(EC50).

[2] = tested on: human red blood cells (HRBCs); test: Hemolytic assay on human red blood cells; format: cell-based; details: for HRBC Hemolysis (hemolysis rate at 320 μg/mL) / EC50: human red blood cells 5% (v/v) in PBS, 37 °C 1 h, OD 540 nm; for HRBC Hemolysis (hemolysis rate at 320 μg/mL): peptide 320 μg/mL (highest dose), PBS = 0%, mean of three independent experiments; for EC50: four-parameter logistic fit of mean of three independent experiments, '-' = hemolytic activity too low to calculate the EC50; for hemolytic activity on HRBCs, result in words: mutants relative to Protopolybia-MPIII
Description: as §1, §2

E. coli = details: reported antibacterial activity; reference per peptide in Table 3; cited from earlier work
B. subtilis = details: reported antibacterial activity; reference per peptide in Table 3; cited from earlier work
S. aureus = details: reported antibacterial activity; reference per peptide in Table 3; cited from earlier work
[3] = tested on: Escherichia coli and Staphylococcus aureus/Bacillus subtilis; design: method as in Table 3 refs 12, 13, 18-30; details: both on Escherichia coli and Staphylococcus aureus/Bacillus subtilis; reported values, ref Table 3 refs 12, 13, 18-30; cited from earlier work
[4] = peptide 10-320 μg/mL twofold dilutions, 1% Triton X-100 = 100%, read-out: RRBC EC50 (hemolytic activity)
[5] = peptide 10-320 μg/mL twofold dilutions, 1% Triton X-100 = 100%, read-out: HRBC EC50 (hemolytic activity)

Molecule	RRBC Hemolysis (hemolysis rate at 320 μg/mL) ([1]; 1% Triton X-100 = 100%)	EC50 [1, 4]	HRBC Hemolysis (hemolysis rate at 320 μg/mL) ([2]; 1% Triton X-100 = 100%)	EC50 [2, 5]	MIC E. coli (E. coli)	MIC B. subtilis (B. subtilis)	MIC S. aureus (S. aureus)	hemolytic activity on RRBCs, result in words [1]	hemolytic activity on HRBCs, result in words [2]	MIC (antibacterial activity, summary) [3]	EC50 ([2]; peptide 10-320 μg/mL twofold dilutions, 1% Triton X-100 = 100%, listed as Polybia-MPII, read-out: HRBC EC50 (hemolytic activity))	EC50 ([1]; Table 2 series, read-out: RRBC EC50 (hemolytic activity), Protopolybia-MPIII and mutants)	EC50 ([2]; Table 2 series, read-out: HRBC EC50 (hemolytic activity), Protopolybia-MPIII and mutants)
KDLHTVVSAILQAL-NH2 [OdVP3a]	27%	> 400 µM	24%	> 400 µM	>200 µM	10 µM	>200 µM	–	–	–	–	–	–
INLKAIAALAKKLL-NH2 [Mastoparan-M]	28%	> 400 µM	18%	> 400 µM	13.5 µM	–	3.38 µM	–	–	–	–	–	–
LNLKGLIKKVASLLN-OH [Eumenitin-R]	7%	> 400 µM	5%	> 400 µM	30 µM	–	60 µM	almost no hemolytic activity	almost no hemolytic activity	–	–	–	–
INLKGLIKKVASLLT-OH [EpVP1]	0%	> 400 µM	9%	> 400 µM	25 µM	5 µM	100 µM	almost no hemolytic activity	almost no hemolytic activity	–	–	–	–
INLKAIAAFAKKLL-NH2 [Mastoparan-T(D)]	19%	> 400 µM	15%	> 400 µM	5.3 µM	–	15.9 µM	–	–	–	–	–	–
INWKGIAAMKKLL-NH2 [Mastoparan-like peptide 12b]	0%	> 400 µM	0%	≥ 400 µM	10 µM	–	2.5 µM	–	–	≤ 10 µM	–	–	–
INWKKIAEVGGKILSSL-NH2 [Dominulin A]	0%	> 400 µM	4%	≥ 400 µM	1 µM	4 µM	–	–	–	≤ 10 µM	–	–	–
LKLMGIVKKVLGAL-NH2 [EMP-EM1]	7%	> 400 µM	21%	> 400 µM	7 µM	68 µM	34 µM	–	–	–	–	–	–
CC[C@H](C)[C@H](NC(=O)[C@H](CO)NC(=O)[C@H](CCCCN)NC(=O)[C@H](CC(C)C)NC(=O)[C@H](CCCCN)NC(=O)[C@@H](N)CC(C)C)C(=O)N[C@H](C(=O)N[C@@H](CO)C(=O)N[C@@H](Cc1c[nH]c2ccccc12)C(=O)N[C@@H](C)C(=O)N[C@@H](CCCCN)C(=O)N[C@@H](CCCCN)C(=O)N[C@H](C(=O)N[C@@H](CC(C)C)C(N)=O)C(C)C)C(C)C [Mastoparan-B]	19%	> 400 µM	22%	> 400 µM	10 µM (≈ 16.1 µg/mL)	–	60 µM (≈ 96.7 µg/mL)	–	–	–	–	–	–
LKLLGIVKKVLGAI-NH2 [EMP-EM2]	2%	> 400 µM	8%	> 400 µM	3 µM	68 µM	17 µM	–	–	–	–	–	–
INLKVFAALVKKFL-NH2 [Mastoparan-T1]	87%	22.7 ± 7.1 µM	100%	30.8 ± 1.6 µM	–	–	–	–	–	–	–	–	–
VDWKKIGQHILSVL-NH2 [Mastoparan-J]	100%	60.1 ± 1.3 µM	100%	69.5 ± 3.2 µM	–	–	–	–	–	–	–	–	–
INWLKLGKMVIDAL-NH2 [Polybia-MP II]	100%	29.1 ± 1.5 µM	91%	23.3 ± 1.4 µM	–	–	–	–	–	–	≤ 400 µM	–	–
INLKAIAALAKKLF-NH2 [Mastoparan AF]	92%	107 ± 15.7 µM	47%	227 ± 3.1 µM	–	–	–	–	–	–	–	–	–
LNLKGIFKKVASLLT-OH [Eumenitin]	4%	> 400 µM	6%	> 400 µM	6 µM	>60 µM	6 µM	almost no hemolytic activity	almost no hemolytic activity	–	–	–	–
INWKKIAEIGKQVLSAL-NH2 [Dominulin B]	0%	> 400 µM	8%	≥ 400 µM	1 µM	4 µM	–	–	–	≤ 10 µM	–	–	–
INWKKMAATALKMI-NH2 [Parapolybia-MP]	22%	–	32%	≥ 400 µM and > 400 µM and 306 µM	–	–	–	–	–	–	–	–	–
INWLKLGKKILGAI-NH2 [Pm-R1]	92%	105 ± 2.2 µM	100%	72 ± 8.5 µM	–	–	–	–	–	–	–	–	–
INWKAILQRIKKML-NH2 [Agelaia-MPII]	97%	62.1 ± 3.8 µM	100%	44.8 ± 10.4 µM	–	–	–	–	–	–	–	–	–
INMKAVAAVAKKPL-NH2 [MP-VB2]	0%	–	0%	–	–	–	–	–	–	–	–	–	–
IDWLKLRVISVIDL-NH2 [Polybia-MP IV]	0%	> 400 µM	0%	> 400 µM	–	–	–	–	–	–	–	–	–
INLKALLAVAKKIL-NH2 [Mastoparan-C]	100%	64.4 ± 10.7 µM	100%	–	–	–	–	–	–	–	–	–	–
INWLKLGKQILGAL-NH2 [Pm-R3]	100%	73.5 ± 5.1 µM	100%	32.3 ± 1.7 µM	–	–	–	–	–	–	–	–	–
INWLKLGKKVIAIL-NH2 [Protopolybia-MPIII-12]	–	–	–	–	–	–	–	–	–	–	–	55.2 ± 2.2 µM	43.9 ± 3.6 µM
INMKASAAVAKKLL-NH2 [MP-VB1]	7%	> 400 µM	0%	> 400 µM	10.3 µM	–	2.5 µM	–	–	–	–	–	–
FDLLGLVKSVVSAL-NH2 [EpVP2b]	100%	50.6 ± 2.6 µM	100%	34.1 ± 3.5 µM	–	–	–	–	–	–	–	–	–
